From paper PMC9329436, “Optimization of the 4-anilinoquin(az)oline scaffold as epidermal growth factor receptor (EGFR) inhibitors for chordoma utilizing a toxicology profiling assay platform” (Scientific Reports, 2022)

Legend:
[1] = tested on: U-CH2 chordoma cell line; experiment: Cell viability assay (alamarBlue, 72 h), U-CH2; type: cell-based, human; details: n = 4, 72 h
Method: (§1) Chordoma cell lines were cultured as described previously[10],[12],[33],[34]. Briefly, U-CH1 and U-CH2 cell lines were cultured in 4:1 IMDM:RPMI medium supplemented with 10% fetal bovine serum (FBS) and 1% penicillin/streptomycin in gel-coated flasks. […] CH22, UM-Chor1, U-CH12, and U-CH7 cell lines were cultured in RPMI medium supplemented with 10% FBS and 1% penicillin/streptomycin. The cell lines all undergo regular mycoplasma screening.
(§2) Cells were seeded in 384 well plates and were treated with test compound in quadruplicate 24 h after plating. Cell viability was assessed at 72 h using alamarBlue (ThermoFisher, USA). […] IC50 values were determined by four-parameter nonlinear regression analyses using GraphPad Prism™ version 8 software (San Diego, CA).

[2] = tested on: HL60 cells; experiment: AsedaSciences SYSTEMETRIC Cell Health Screen (flow cytometry toxicity profiling); details: for CC: Cell Cycle score / CM: Cell morphology score / CMI: Cell membrane integrity score / GSH: Glutathione score / MMP: Mitochondrial membrane depolarization score / NMI1: Nuclear membrane integrity 1 score / NMI2: Nuclear membrane integrity 2 score / ROS: Reactive superoxide species score / CHI: Cell Health Index: HL60, 4 h, 5 nM–100 µM; for CC: Cell Cycle score / CM: Cell morphology score / CMI: Cell membrane integrity score / GSH: Glutathione score / MMP: Mitochondrial membrane depolarization score / NMI1: Nuclear membrane integrity 1 score / NMI2: Nuclear membrane integrity 2 score / ROS: Reactive superoxide species score: probability 0–1, n = 2; for CHI: Cell Health Index: probability (0–1) of high-risk class, n = 2; for Cell Health Toxcity Profile CC (DyeCycle Violet) / Cell Health Toxcity Profile CM (Cell morphology) / Cell Health Toxcity Profile CMI (Cell membrane integrity) / Cell Health Toxcity Profile GSH (Glutathione) / Cell Health Toxcity Profile MMP (Mitochondrial membrane depolarization) / Cell Health Toxcity Profile NMI1 (Nuclear membrane integrity 1) / Cell Health Toxcity Profile NMI2 (Nuclear membrane integrity 2) / Cell Health Toxcity Profile ROS (Reactive superoxide species) / Cell Health Toxcity Profile CHI: SYSTEMETRIC Cell Health Screen, assay n=2; for Cell Health Toxcity Profile CHI: classifier output
From the text: To prioritize further optimization, in addition to cellular potency, we utilized the AsedaSciences® […]® Cell Health Screen. This live cell flow cytometry (FC) screen was developed to assess human safety risk for candidate pharmaceutical small molecules at the early hit-to-lead stage of development. The screen works by estimating the risk using a supervised machine learning (ML) classifier to assess a multiparametric cellular stress phenotype, produced by the test compound, relative to a training set of known compounds (Table S1). This screen has been designed for early pipeline risk estimation regardless of pharmaceutical class/disease type, so it uses HL60 as the reporter cell line.
The ML classifier was trained with 300 historically known compounds (on market or withdrawn drugs, research compounds, etc.), which were divided into two outcome classes based upon literature, clinical trials, and market histories where applicable. This external curation informed an outcome of “high-risk” or “low-risk”. All 300 compounds were also processed through the automated FC screen, populating each of the two classes with frequency distributions of empirical cell-based phenotypes.
To estimate human safety risk for an unknown compound, the ML classifier assesses the similarity of the test compound’s cell-based phenotype to the distributions of phenotypes in the two outcome classes. […] Phenotypes are derived from twelve FC detection parameters, including light scatter and a series of fluorescent physiological reporter dyes, that track cell stress-related endpoints.
To produce the Cell Health Index, the ML classifier uses all twelve FC parameters simultaneously in a multidimensional logistic regression model, so the CHI contains the most predictive power. In addition to the Cell Health Index, Table 4 also reports probability scores for eight cell stress-related endpoints. These scores are produced individually by passing information to the ML classifier relating to parameters that inform that endpoint. For example, to produce the cell morphology (CM) score, the ML classifier only uses the FC detection parameters for forward scatter (informing change in cell diameter) and side scatter (informing change in optical granularity of the cell) to inform the model. Together, these eight endpoints provide a “biological fingerprint”, allowing assessment of the degree to which SAR series members behave differently across endpoints.
In a 384-well platform, HL60 cells were exposed to a 10-step, 3 × dilution series of each test compound (5 nM–100 µM) for 4 h at 37 °C with 5% CO2. Each dilution series was screened in duplicate, occupying a total of 20 wells, allowing 16 test compounds to be assayed per plate. Each row contained one positive and one negative control well, for a total of 16 replicate positive/negative control pairs on each assay plate. Compound formatting, cell deposition, and dye application were performed robotically so that final assay conditions comprised 100,000 cells in a 40 µL volume. After the 4 h compound exposure, cells were immediately stained with a panel of fluorescent dyes that report physiological signatures of both mitochondrial dysfunction and gross cell stress. Fluorescence and forward/side-scatter data were collected using automated FC with no gating. FC data are processed by an automated algorithm for producing quality control measures and ML classification of compound phenotypes. • 2. HL60 cell culture production
HL60 cells were produced as suspension cultures in glass 850 cm^2 roller bottles with vented caps, at 1 RPM, 5% CO2, and 37 °C. […] Culture density was maintained at or below 1 × 10^6 cells/mL.

[3] = tested on: U-CH1 chordoma cell line; experiment: Cell viability assay (alamarBlue, 72 h), U-CH1; type: cell-based, human; details: n = 4, 72 h
Method: as §1, §2

SMILES | IC50 [1] | CC: Cell Cycle score [2] | CM: Cell morphology score [2] | CMI: Cell membrane integrity score [2] | GSH: Glutathione score [2] | MMP: Mitochondrial membrane depolarization score [2] | NMI1: Nuclear membrane integrity 1 score [2] | NMI2: Nuclear membrane integrity 2 score [2] | ROS: Reactive superoxide species score [2] | CHI: Cell Health Index [2] | IC50 [3] | Cell Health Toxcity Profile CC (DyeCycle Violet) [2] | Cell Health Toxcity Profile CM (Cell morphology) [2] | Cell Health Toxcity Profile CMI (Cell membrane integrity) [2] | Cell Health Toxcity Profile GSH (Glutathione) [2] | Cell Health Toxcity Profile MMP (Mitochondrial membrane depolarization) [2] | Cell Health Toxcity Profile NMI1 (Nuclear membrane integrity 1) [2] | Cell Health Toxcity Profile NMI2 (Nuclear membrane integrity 2) [2] | Cell Health Toxcity Profile ROS (Reactive superoxide species) [2] | Cell Health Toxcity Profile CHI [2]
C#Cc1cccc(Nc2ncnc3ccc(OC)cc23)c1 [Compound 2] | 47 µM | 0.38 | 0.24 | 0.62 | 0.038 | 0.019 | 0.42 | 0.068 | 0.17 | 0.31 | 1.4 µM |  |  |  |  |  |  |  |  | 
C#Cc1cccc(Nc2ncnc3cc4c(cc23)OCO4)c1 [Compound 20] | > 100 µM | 0.13 | 0.0019 | 0.0038 | 0.087 | 0.016 | 0.72 | 0.0045 | 0.027 | 0.18 | 22 µM |  |  |  |  |  |  |  |  | 
C#Cc1cccc(Nc2c(C#N)cnc3cc(OC)ccc23)c1 [Compound 33] | 40 µM |  |  |  |  |  |  |  |  |  | 4.1 µM | 0.81 | 0.97 | 0.90 | 0.78 | 0.22 | 0.20 | 0.16 | 0.68 | 0.44
C#Cc1cccc(Nc2c(C#N)cnc3ccccc23)c1 [Compound 24] | > 100 µM |  |  |  |  |  |  |  |  |  | 34 µM | 0.76 | 0.99 | 1.00 | 0.98 | 0.97 | 0.85 | 0.81 | 0.98 | 0.70
C#Cc1cccc(Nc2ncnc3ccc(F)cc23)c1 [Compound 5] | > 100 µM | 0.34 | 0.0041 | 0.091 | 0.087 | 0.26 | 0.082 | 0.11 | 0.34 | 0.26 | 19 µM |  |  |  |  |  |  |  |  | 
C#Cc1cccc(Nc2ncnc3cc(Br)ccc23)c1 [Compound 14] | > 100 µM | 0.74 | 0.024 | 0.41 | 0.010 | 0.17 | 0.033 | 0.3 | 0.86 | 0.33 | 54 µM |  |  |  |  |  |  |  |  | 
C#Cc1cccc(Nc2ncnc3ccc(S(C)(=O)=O)cc23)c1 [Compound 19] | 52 µM | 0.33 | 0.0013 | 0.0057 | 0.044 | 0.21 | 0.36 | 0.089 | 0.055 | 0.22 | 45 µM |  |  |  |  |  |  |  |  | 
CS(=O)(=O)CCNCc1ccc(-c2ccc3ncnc(Nc4ccc(OCc5cccc(F)c5)c(Cl)c4)c3c2)o1 [Lapatinib, reference compound] |  | 0.93 | 1.00 | 1.00 | 0.96 | 1.00 | 0.97 | 0.92 | 0.90 | 0.89 |  |  |  |  |  |  |  |  |  | 
CN1CCN(CCCN2c3ccccc3Sc3ccc(Cl)cc32)CC1 [Prochlorperazine, reference compound] |  | 0.96 | 1.00 | 1.00 | 1.00 | 1.00 | 1.00 | 0.99 | 1.00 |  |  |  |  |  |  |  |  |  |  | 
Cc1ccc(N(CC2=NCCN2)c2cccc(O)c2)cc1 [Phentolamine, reference compound] |  | 0.040 | 0.00 | 0.16 | 0.17 | 0.29 | 0.64 | 0.79 | 0.11 |  |  |  |  |  |  |  |  |  |  | 
Cc1ccc(=O)n(-c2ccccc2)c1 [Pirfenidone, reference compound] |  | 0.060 | 0.00 | 0.090 | 0.040 | 0.010 | 0.040 | 0.030 | 0.020 | 0.17 |  |  |  |  |  |  |  |  |  | 
